Data on 23 compounds can be found in patent US20230339891A1, “URACIL DERIVATIVES AS MER-AXL INHIBITORS” (BRISTOL-MYERS SQUIBB COMPANY, priority 2018, published 2023).

Assay [1] concerns the target HIS-AXL 473-End (Homo sapiens (Human), UniProt P30530). As to the kind of experiment: AXL kinase homogeneous time resolved fluorescence (HTRF) binding assay. The settings on record: 1 nM kinase, fluorescein-labeled kinase tracer at Kd, 60 minutes at room temperature. In short, it runs like this:
(§1)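 HTRF binding read-out after 60 min at room temperature, expressed as the 520/495 nm (fluorescein/terbium) ratio. Inhibition normalized to no-protein (100%) and vehicle (0%) controls. IC50 from 11-point dose-response; compounds from 10 mM DMSO stocks.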
Background: TR-FRET usually uses a lanthanide donor and a delayed reading to cut background.

Assay [2] deals with GST-MERTK 578-872 (Homo sapiens (Human), UniProt Q12866). Briefly: MERTK kinase homogeneous time resolved fluorescence (HTRF) binding assay. To be noted: 1 nM kinase, fluorescein-labeled kinase tracer at Kd, 60 minutes at room temperature; read-out: Mer HTRF IC50. In short, it runs like this:
as §1

Chain of GST-MERTK 578-872 (Q12866 578-872): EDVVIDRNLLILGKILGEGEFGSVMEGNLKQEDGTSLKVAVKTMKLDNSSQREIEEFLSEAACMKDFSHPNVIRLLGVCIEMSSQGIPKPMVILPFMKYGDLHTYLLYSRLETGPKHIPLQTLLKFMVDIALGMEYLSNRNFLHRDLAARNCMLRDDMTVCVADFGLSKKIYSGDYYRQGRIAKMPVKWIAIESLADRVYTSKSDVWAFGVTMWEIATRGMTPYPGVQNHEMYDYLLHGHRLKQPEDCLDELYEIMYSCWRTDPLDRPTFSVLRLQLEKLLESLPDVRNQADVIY
Chain of HIS-AXL 473-End (P30530 473-894): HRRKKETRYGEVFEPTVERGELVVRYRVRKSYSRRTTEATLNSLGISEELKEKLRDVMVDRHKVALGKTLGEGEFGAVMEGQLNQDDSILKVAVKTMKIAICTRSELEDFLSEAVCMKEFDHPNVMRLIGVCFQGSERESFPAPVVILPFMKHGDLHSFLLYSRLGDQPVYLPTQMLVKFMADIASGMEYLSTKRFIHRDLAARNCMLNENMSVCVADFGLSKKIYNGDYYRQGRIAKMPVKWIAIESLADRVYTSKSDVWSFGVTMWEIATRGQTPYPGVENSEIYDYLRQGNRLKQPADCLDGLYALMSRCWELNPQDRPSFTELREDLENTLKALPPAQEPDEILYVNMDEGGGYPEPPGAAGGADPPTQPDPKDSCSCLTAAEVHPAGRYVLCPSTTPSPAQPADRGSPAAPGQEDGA

As for `CC(C)n1cc(C(=O)Nc2ccc(Oc3ccnc(Nc4ccc(S(C)(=O)=O)cn4)c3)c(F)c2)c(=O)n(-c2ccc(F)cc2)c1=O` [Example 18], the IC50 (as a rule, the concentration that inhibits the measured activity by half) turned out to be 11 nM in assay [1] and 18 nM in assay [2].

For the compound `CC(C)n1cc(C(=O)Nc2ccc(Oc3ccnc(Nc4ccnc(N5CCC(S(C)(=O)=O)CC5)n4)c3)c(F)c2)c(=O)n(C23CC(C2)C3)c1=O` [Example 113], the values for the IC50 in assay [1] and in assay [2] were 4.8 nM and 2.8 nM, respectively.

In the case of `CC(C)n1cc(C(=O)Nc2ccc(Oc3ccnc(Nc4ccc(S(=O)(=O)N(C)C)cn4)c3)c(F)c2)c(=O)n(C2CCCCC2)c1=O` [Example 53], the IC50 in assay [1] was found to be 256 nM; in assay [2] it was 487 nM.

Take `Cc1cnc(Nc2cc(Oc3ccc(NC(=O)c4cn(C(C)C)c(=O)n(-c5ccc(F)cc5)c4=O)cc3F)ccn2)nc1` [Example 31]: the figures for the IC50 in assay [1] and in assay [2] were 7.5 nM and 158 nM, respectively.

For the compound `CC(C)n1cc(C(=O)Nc2ccc(Oc3ccnc(Nc4ccc(NS(C)(=O)=O)cn4)c3)c(F)c2)c(=O)n(-c2ccc(F)cc2)c1=O` [Example 87, N-[3-fluoro-4-({2-[(5-methanesulfonamidopyridin-2-yl)amino]pyridin-4-yl}oxy)phenyl]-3-(4-fluorophenyl)-2,4-dioxo-1-(propan-2-yl)-1,2,3,4-tetrahydropyrimidine-5-carboxamide], the IC50 in assay [1] is 16 nM; in assay [2], 6.7 nM.

In the case of `CC(C)n1cc(C(=O)Nc2ccc(Oc3ccnc(Nc4ccnc(N5CCCC5)n4)c3)c(F)c2)c(=O)n(-c2ccc(F)cc2)c1=O` [Example 103, N-{3-fluoro-4-[(2-{[2-(pyrrolidin-1-yl)pyrimidin-4-yl]amino}pyridin-4-yl)oxy]phenyl}-3-(4-fluorophenyl)-2,4-dioxo-1-(propan-2-yl)-1,2,3,4-tetrahydropyrimidine-5-carboxamide], the results for the half-maximal inhibitory concentration (IC50) in assay [1] and in assay [2] were 0.7 nM and 0.6 nM, respectively.

As for `Cc1cnc(Nc2ccnc(N3CCC(S(C)(=O)=O)CC3)n2)cc1Oc1ccc(NC(=O)c2cn(C(C)C)c(=O)n(-c3ccccc3)c2=O)cc1` [Example 115, N-{4-[(2-{[2-(4-methanesulfonylpiperidin-1-yl)pyrimidin-4-yl]amino}-5-methylpyridin-4-yl)oxy]phenyl}-2,4-dioxo-3-phenyl-1-(propan-2-yl)-1,2,3,4-tetrahydropyrimidine-5-carboxamide], the IC50 in assay [1] is 41 nM; in assay [2], 810 nM.

With `Cc1cnc(Nc2cc(Oc3ccc(NC(=O)c4cn(C(C)C)c(=O)n(-c5ccc(F)cc5)c4=O)cc3F)ccn2)nc1N1CCN(S(C)(=O)=O)CC1` [Example 137, N-(3-fluoro-4-[(2-{[4-(4-methanesulfonylpiperazin-1-yl)-5-methylpyrimidin-2-yl]amino}pyridin-4-yl)oxy]phenyl)-3-(4-fluorophenyl)-2,4-dioxo-1-(propan-2-yl)-1,2,3,4-tetrahydropyrimidine-5-carboxamide], the IC50 in assay [1] was found to be 3.4 nM; in assay [2], 3.6 nM.

In the case of `CC(C)n1cc(C(=O)Nc2ccc(Oc3ccnc(Nc4ccn(C(F)F)n4)c3)c(F)c2)c(=O)n(-c2ccc(F)cc2)c1=O` [Example 35, N-{4-[(2-{[1-(Difluoromethyl)-1H-pyrazol-3-yl]amino}pyridin-4-yl)oxy]-3-fluorophenyl}-3-(4-fluorophenyl)-2,4-dioxo-1-(propan-2-yl)-1,2,3,4-tetrahydropyrimidine-5-carboxamide], the results for the IC50 in assay [1] and in assay [2] were 0.8 nM and 4.3 nM, respectively.

Consider `CC(C)n1cc(C(=O)Nc2ccc(Oc3ccnc(Nc4ccc(S(=O)(=O)N(C)C)cn4)c3)c(F)c2)c(=O)n(Cc2ccccc2)c1=O` [Example 49], for which the IC50 was 110 nM in assay [1] and 3310 nM in assay [2].

On to `CC(C)n1cc(C(=O)Nc2ccc(Oc3ccnc(Nc4ccc(C(=O)NCCN5CCOCC5)cn4)c3)c(F)c2)c(=O)n(-c2ccc(F)cc2)c1=O` [Example 93], for which the IC50 in assay [1] worked out at 0.4 nM; in assay [2] it was 1.6 nM.

Consider `CC(C)NS(=O)(=O)c1ccc(Nc2cc(Oc3ccc(NC(=O)c4cn(C(C)C)c(=O)n(-c5ccc(F)cc5)c4=O)cc3F)ccn2)nc1` [Example 78], for which the IC50 stood at 986 nM in assay [1] and 9.8 nM in assay [2].

In the case of `CCc1ccc(Nc2cc(Oc3ccc(NC(=O)c4cn(C(C)C)c(=O)n(-c5ccc(F)cc5)c4=O)cc3F)ccn2)nc1` [Example 5], the IC50 in assay [1] came to 24 nM; in assay [2] it was 56 nM.

`CC(C)n1cc(C(=O)Nc2ccc(Oc3ccnc(Nc4ccc(S(=O)(=O)N(C)C)cn4)c3)c(F)c2)c(=O)n(-c2ccc(F)c(F)c2)c1=O` [Example 69]: the IC50 in assay [1] turned out to be 18 nM; in assay [2], 23 nM.

Regarding `COC(=O)Cc1csc(Nc2cc(Oc3ccc(NC(=O)c4cn(C(C)C)c(=O)n(-c5ccc(F)cc5)c4=O)cc3F)ccn2)n1` [Example 33], the values for the IC50 in assay [1] and in assay [2] were 19 nM and 67 nM, respectively.

For `CC(C)n1cc(C(=O)Nc2ccc(Oc3ccnc(Nc4ccc(-n5ccnc5)cn4)c3)c(F)c2)c(=O)n(-c2ccc(F)cc2)c1=O` [Example 24], the IC50 in assay [1] turned out to be 5.6 nM; in assay [2], 12 nM.

Take `CC(C)n1cc(C(=O)Nc2ccc(Oc3ccnc(Nc4ccc(S(=O)(=O)N(C)C)cn4)c3)c(F)c2)c(=O)n(Cc2ccncc2)c1=O` [Example 58]: the IC50 in assay [1] was found to be 287 nM; in assay [2], 201 nM.

`CN(C)S(=O)(=O)c1ccc(Nc2cc(Oc3ccc(NC(=O)c4cn([C@H]5CCOC5)c(=O)n(-c5ccc(F)cc5)c4=O)cc3F)ccn2)nc1` [Example 47]: the IC50 was 6 nM in assay [1] and 7.9 nM in assay [2].

With `CN(C)S(=O)(=O)c1ccc(Nc2cc(Oc3ccc(NC(=O)c4cn(C5CC5)c(=O)n(-c5ccc(F)cc5)c4=O)cc3F)ccn2)nc1` [Example 40, 1-Cyclopropyl-N-{4-[(2-{[5-(dimethylsulfamoyl)pyridin-2-yl]amino}pyridin-4-yl)oxy]-3-fluorophenyl}-3-(4-fluorophenyl)-2,4-dioxo-1,2,3,4-tetrahydropyrimidine-5-carboxamide], the IC50 in assay [1] came to 3.8 nM; in assay [2], 11 nM.

For the compound `CC(C)n1cc(C(=O)Nc2ccc(Oc3ccnc(Nc4ccc(N5CCCC5=O)cn4)c3)c(F)c2)c(=O)n(-c2ccc(F)cc2)c1=O` [Example 88, N-{3-fluoro-4-[(2-{[5-(2-oxopyrrolidin-1-yl)pyridin-2-yl]amino}pyridin-4-yl)oxy]phenyl}-3-(4-fluorophenyl)-2,4-dioxo-1-(propan-2-yl)-1,2,3,4-tetrahydropyrimidine-5-carboxamide], the figures for the IC50 in assay [1] and in assay [2] were 3.3 nM and 5.6 nM, respectively.

Consider `COC1CCN(c2nc(Nc3cc(Oc4ccc(NC(=O)c5cn(C(C)C)c(=O)n(-c6ccc(F)cc6)c5=O)cc4F)ccn3)ccc2C#N)CC1` [Example 121], for which the IC50 in assay [1] stood at 3.9 nM; in assay [2], 2.4 nM.

In the case of `CC(C)n1cc(C(=O)Nc2ccc(Oc3ccnc(Nc4ccc(C(=O)N(C)C)c(N5CCN(S(C)(=O)=O)CC5)n4)c3)c(F)c2)c(=O)n(-c2ccc(F)cc2)c1=O` [Example 97, N-{4-[(2-{[5-(Dimethylcarbamoyl)-6-(4-methanesulfonylpiperazin-1-yl)pyridin-2-yl]amino}pyridin-4-yl)oxy]-3-fluorophenyl}-3-(4-fluorophenyl)-2,4-dioxo-1-(propan-2-yl)-1,2,3,4-tetrahydropyrimidine-5-carboxamide], the IC50 in assay [1] turned out to be 0.3 nM; in assay [2], 1 nM.

For `COC(=O)c1ccc(Nc2cc(Oc3ccc(NC(=O)c4cn(C(C)C)c(=O)n(-c5ccc(F)cc5)c4=O)cc3F)ccn2)nc1` [Example 14, Methyl 6-((4-(2-fluoro-4-(3-(4-fluorophenyl)-1-isopropyl-2,4-dioxo-1,2,3,4-tetrahydropyrimidine-5-carboxamido)phenoxy)pyridin-2-yl)amino)nicotinate], the IC50 stood at 3.6 nM in assay [1] and 11 nM in assay [2].
